Experimental data from article PMC8709388, “In Search of Small Molecules That Selectively Inhibit MBOAT4” (Molecules, 2021).
pIC50: −log10 of the molar value. Where two headings read alike, the source gives them in different places.

Experiments:
[1] = test system: acyl ghrelin secretion from INS-1 cells (INS/GOAT/GHRL cell line); test: INS-1 cellular assay: secreted acyl-ghrelin from INS/GOAT/GHRL cell line measured with ELISA; assay type: cell-based, mouse; conditions: for pIC50: INS1, acyl-ghrelin secretion, read-out: in-house INS-1 IC50; for activity in cell culture (in words): acyl ghrelin secretion
Excerpt: Generation of Recombinant Retrovirus for mGOAT Expression. The mouse GOAT cDNA with C-terminal HA tag was amplified from pcDNA3.1-mouseGOAT-HA vector (gift from Brown and Goldstein lab) using the following primers: mGOAT_attb1 (forward primer) 5′-[…]—3′(attb1 recombination site is in italics, 5′ of mGOAT coding sequence is in bold, and Kozak coding sequence is underlined) and mGOAT_attb2 (reverse primer) 5′-[…] -3′ (attb2 recombination site is in italics, 3′ of mGAOT-HA coding sequence is in bold, and stop codon is underlined). The PCR product was cloned into donor vector pDONR221 (ThermoFisher) with BP clonase according to manufacturer’s instructions. Positive clones were verified by DNA sequencing with M13F and M13R primers. The resulting entry plasmid pDONR221-mGOAT-HA was used to transfer mGOAT-HA cDNA to destination vector pBabe-puro (Addgene cat# 51070 [35]) using LR clonase according to manufacturer’s instructions. Positive clones were verified by DNA sequencing with pBABE-5 and pBABE-3 primers. The resulting plasmid, pBabe-puro-mGOAT-HA, was used to generate retrovirus. The retrovirus was packed in 293T PhoE (Phoenix-ECO AT0CC® CRL-3214™) cells and used to infect INS-1 cells. The stable INS/GOAT cells were selecting on 1 μg/mL puromycin and GOAT expression was confirmed with immunoblot of membrane fraction isolated from antibiotic resistant culture using anti-HA antibody.
Generation of Lentivirus for Expression of Ghrelin. The cDNA for mouse preproghrelin was subcloned from pcDNA3.1-preproghrelin (gift from Brown and Goldstein lab) into pULTRA vector (Addgene cat# 24129 [36]) with XbaI and BamHI restriction enzymes. Using of these restriction sites for cloning will result in the creation of bi-cistronic expression of ghrelin along with EGFP to facilitate identification of positive cells by fluorescence. The above restriction sites were engineered via PCR reaction using the following primers: ghrl_pultra_forw 5′-[…]-3′ (5′ of preproghrelin coding sequence is in bold; XbaI site is in italics) and ghrl_pultra_rev 5′-[…] -3′ (3′ of preproghrelin coding sequence is in bold, stop codon is underlined, and BamHI site is italics). The recombinant lentivirus encoding preproghrelin cDNA was packed in Lenti-X 293T cells (Takara cat# 632180) by co-transfection of pUltra-EGFP-mouse-preproghrelin, with packaging encoding plasmid pCMV ΔR8.2 (Addgene cat# 12263) and envelope encoding plasmid pCMV-VSV g (Addgene cat# 8454). The INS/GOAT cells were infected with recombinant lentivirus to generate INS/GOAT/GHRL cell line. After few passages, the population of cells with puromycin resistance and ~90% fluorescence was saved for cell-based assay.
Cellular assay. INS/GOAT/GHRL cell line was routinely cultured in RPMI medium supplemented with 10% FBS, 1% Pen/Strep, 10 mM HEPES pH 7.2 and 50 μM 2-mercaptoethanol. Day 0: One 10 cm dish at full confluency was used to seed one 96-well plate. Day 1: Growth media was removed and cells were washed with PBS prior to adding fresh growth media as above but without 2-mercaptoethanol. The serial dilutions of tested compound at 50× concentration were prepared in vehicle containing growth media without 2-mercaptoethnol supplemented with 6% DMSO and were added to cells in duplicates. Day 2: 10 μL of growth media were removed from each well and amount of secreted acyl-ghrelin was measured with ELISA (Cayman cat# 10006307).

ghrelin production = test system: ghrelin production; parameters: method as in earlier work; conditions: cited from earlier work
GOAT = conditions: read-out: lit. IC50, cited from earlier work

Structure (SMILES)	pIC50 [1]	adverse side effects (ghrelin production; at doses that inhibited ghrelin production)	ghrelin production in vivo (ghrelin production)	oral bioavailability (ghrelin production)	pIC50 (GOAT; Eli Lilly compound)	pIC50 (GOAT; Boehringer Ingelheim compound)	activity in cell culture (in words) [1]	potency of blocking ghrelin secretion from INS-1 cells relative to 5 [1] [fold]
Cc1nc(Cl)nc(N)c1CCC1CCN(C(=O)[C@H](C)NC(=O)c2ccnn2C)CC1 [compound 5]	6.17	did not cause observable adverse side effects	inhibited ghrelin production in vivo	orally bioavailable	7.24			
CNC(=O)c1cccc(Cc2c(C)nc3nonc3c2N)n1 [compound 6, reference compound]	6.27					9.62		
CCCCOCC(=O)N1CCC(CCc2c(C)nc3nonc3c2N)CC1 [compound 10, 1-(4-(2-(7-amino-5-methyl-[1,2,5]oxadiazolo[3,4-b]pyridin-6-yl)ethyl)piperidin-1-yl)-2-butoxyethan-1-one]	< 5.18						much less active in cells	
Cc1nc2nonc2c(N)c1CCC1CCN(C(=O)[C@H](C)NC(=O)c2ccnn2C)CC1 [compound 11, (S)-N-(1-(4-(2-(7-amino-5-methyl-[1,2,5]oxadiazolo[3,4-b]pyridin-6-yl)ethyl)pip-eridin-1-yl)-1-oxopropan-2-yl)-1-methyl-1H-pyrazole-5-carboxamide]	6.80						most potent compound we have tested in our cellular assay	4
